Ten molecules from ChEMBL document CHEMBL1142460, “2,4(5)-Diarylimidazoles: synthesis and biological evaluation of a new class of sodium channel blockers against hNa(v)1.2” (Bioorg Med Chem Lett, 2008) can be followed below.

The target in experiment [1] is Sodium channel protein type 2 subunit alpha (Homo sapiens) (UniProt Q99250). Briefly: Inhibition of Nav1.2 channel in HEK cells at 100 uM by patch clamp technique. It counts as cell-based. Also noted: scale not given: the % may be the effect or the level left. As to conditions: HEK293. Background: Patch clamp records ionic current or voltage across a cell membrane.
Chain of Sodium channel protein type 2 subunit alpha (Homo sapiens) (Q99250 whole entry, looked up): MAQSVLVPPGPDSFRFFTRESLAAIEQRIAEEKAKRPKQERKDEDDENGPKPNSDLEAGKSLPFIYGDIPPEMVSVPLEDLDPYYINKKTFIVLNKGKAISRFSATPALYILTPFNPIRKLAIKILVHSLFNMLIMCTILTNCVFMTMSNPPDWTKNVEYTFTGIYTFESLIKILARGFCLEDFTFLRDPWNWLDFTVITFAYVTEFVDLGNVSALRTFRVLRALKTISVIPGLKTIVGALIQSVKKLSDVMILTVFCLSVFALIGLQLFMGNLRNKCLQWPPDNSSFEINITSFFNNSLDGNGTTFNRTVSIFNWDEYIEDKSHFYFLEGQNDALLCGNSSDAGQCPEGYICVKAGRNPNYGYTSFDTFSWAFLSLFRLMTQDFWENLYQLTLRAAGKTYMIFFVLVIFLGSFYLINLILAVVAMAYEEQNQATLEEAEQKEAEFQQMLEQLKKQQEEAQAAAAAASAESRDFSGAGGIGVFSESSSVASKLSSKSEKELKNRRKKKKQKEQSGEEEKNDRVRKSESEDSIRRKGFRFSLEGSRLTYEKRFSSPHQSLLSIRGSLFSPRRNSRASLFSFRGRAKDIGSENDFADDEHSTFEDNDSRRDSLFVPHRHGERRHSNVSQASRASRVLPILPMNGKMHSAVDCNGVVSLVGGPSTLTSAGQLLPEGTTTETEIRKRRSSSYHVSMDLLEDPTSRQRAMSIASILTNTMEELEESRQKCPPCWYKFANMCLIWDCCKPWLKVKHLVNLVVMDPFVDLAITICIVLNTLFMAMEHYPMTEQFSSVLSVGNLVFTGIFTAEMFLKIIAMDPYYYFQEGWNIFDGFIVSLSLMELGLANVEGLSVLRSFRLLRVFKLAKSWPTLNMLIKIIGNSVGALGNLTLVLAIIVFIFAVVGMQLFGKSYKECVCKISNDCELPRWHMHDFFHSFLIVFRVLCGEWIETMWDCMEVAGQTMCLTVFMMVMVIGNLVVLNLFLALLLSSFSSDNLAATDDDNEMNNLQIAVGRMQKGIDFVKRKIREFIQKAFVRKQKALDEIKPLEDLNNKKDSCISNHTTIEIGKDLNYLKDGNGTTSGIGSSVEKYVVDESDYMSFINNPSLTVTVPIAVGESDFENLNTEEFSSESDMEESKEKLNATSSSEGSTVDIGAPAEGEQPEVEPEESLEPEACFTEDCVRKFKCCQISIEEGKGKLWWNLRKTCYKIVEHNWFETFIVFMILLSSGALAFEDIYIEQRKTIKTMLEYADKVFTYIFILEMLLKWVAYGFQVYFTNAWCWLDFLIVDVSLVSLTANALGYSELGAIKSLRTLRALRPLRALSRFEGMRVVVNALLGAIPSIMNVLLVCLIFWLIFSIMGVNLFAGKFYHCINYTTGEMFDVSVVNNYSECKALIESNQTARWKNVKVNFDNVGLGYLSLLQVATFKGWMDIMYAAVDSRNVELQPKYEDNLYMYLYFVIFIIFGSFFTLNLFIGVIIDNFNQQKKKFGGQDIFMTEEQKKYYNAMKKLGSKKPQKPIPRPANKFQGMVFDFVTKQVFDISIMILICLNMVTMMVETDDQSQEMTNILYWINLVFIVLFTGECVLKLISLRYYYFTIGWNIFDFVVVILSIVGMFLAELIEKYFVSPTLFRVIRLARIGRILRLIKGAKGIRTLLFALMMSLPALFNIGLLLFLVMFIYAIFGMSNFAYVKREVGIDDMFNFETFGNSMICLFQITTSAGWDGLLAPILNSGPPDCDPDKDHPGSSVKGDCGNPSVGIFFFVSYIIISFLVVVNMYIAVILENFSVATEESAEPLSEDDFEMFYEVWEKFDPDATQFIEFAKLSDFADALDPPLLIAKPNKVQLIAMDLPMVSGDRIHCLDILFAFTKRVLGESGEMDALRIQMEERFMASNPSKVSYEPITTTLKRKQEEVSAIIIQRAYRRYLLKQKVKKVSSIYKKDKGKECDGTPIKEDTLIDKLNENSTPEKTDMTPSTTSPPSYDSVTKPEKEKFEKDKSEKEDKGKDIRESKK

Experiment [2] has the same target. Briefly: Inhibition of Nav1.2 channel in HEK cells at 10 uM by patch clamp technique. It counts as cell-based. Also noted: scale not given: the % may be the effect or the level left. As to conditions: HEK293.

As for `c1ccc(-c2c[nH]c(-c3ccoc3)n2)cc1`, the Activity in experiment [1] turned out to be 27.3%; in experiment [2], 11.9%.
Consider `c1ccc(-c2c[nH]c(-c3ccncc3)n2)cc1`, for which the Activity in experiment [1] was 40.7%; in experiment [2], 8%.
For `Nc1nnc(-c2cccc(Cl)c2Cl)c(N)n1` the same measures were 35.1% and 12.1%.
For the molecule `O=C1NC(=O)C(c2ccccc2)(c2ccccc2)N1`, the Activity in experiment [1] was 21.2%; in experiment [2] it was 10.6%.
For `c1ccc(-c2c[nH]c(-c3ccco3)n2)cc1`, the Activity came to 37.7% in experiment [1] and 2.7% in experiment [2].
For `c1ccc(-c2c[nH]c(C3CCCCC3)n2)cc1` the same measures were 91.5% and 26.7%.
On the same counts, the results for `c1ccc(-c2c[nH]c(-c3cc4ccccc4o3)n2)cc1` are 72.4% and 37.7%.
On the same counts, the results for `c1ccc(-c2c[nH]c(-c3ccccc3)n2)cc1` are 80.5% and 7.8%.
Take `c1ccc(-c2c[nH]c(-c3ccsc3)n2)cc1`: the Activity turned out to be 70.9% in experiment [1] and 5.1% in experiment [2].
For `c1ccc(-c2c[nH]c(-c3cccnc3)n2)cc1` the same measures were 22.5% and 4.7%.
